Reference: ChEMBL document CHEMBL3045393, “Aryldiones incorporating a [1,4,5]oxadiazepane ring. Part I: Discovery of the novel cereal herbicide pinoxaden” (Bioorg Med Chem, 2009)
Active and inactive are the calls of the source. The rule behind the calls is not given here.

Tests used:
Alopecurus myosuroides [1] = assay: Post-emergence herbicidal activity against Alopecurus myosuroides at 250 g a.i./ha measured after 21 days in presence of 1% Merge adjuvant; format: functional
Lolium perenne [2] = assay: Post-emergence herbicidal activity against Lolium perenne (perennial ryegrass) at 250 g a.i./ha measured after 21 days in presence of 1% Merge adjuvant; format: functional
Setaria faberi [3] = assay: Post-emergence herbicidal activity against Setaria faberi (Giant Foxtail) at 250 g a.i./ha measured after 21 days in presence of 1% Merge adjuvant; format: functional
Hordeum vulgare [4] = assay: Phytotoxicity against Hordeum vulgare (barley) at 250 g a.i./ha applied post-emergence measured after 21 days in presence of 1% Merge adjuvant; format: organism-based; details: in vivo, other, 504 h
Triticum aestivum [5] = assay: Phytotoxicity against Triticum aestivum (wheat) at 250 g a.i./ha applied post-emergence measured after 21 days in presence of 1% Merge adjuvant; format: organism-based; details: in vivo, other, 504 h
Avena fatua [6] = assay: Post-emergence herbicidal activity against Avena fatua at 250 g a.i./ha measured after 21 days in presence of 1% Merge adjuvant; format: functional
Lolium perenne [7] = assay: Post-emergence herbicidal activity against Lolium perenne (perennial ryegrass) at 500 g a.i./ha after 21 days; format: functional
Setaria faberi [8] = assay: Post-emergence herbicidal activity against Setaria faberi (Giant Foxtail) at 2000 g a.i./ha after 21 days; format: functional
Setaria faberi [9] = assay: Post-emergence herbicidal activity against Setaria faberi (Giant Foxtail) at 500 g a.i./ha after 21 days; format: functional
Avena fatua [10] = assay: Post-emergence herbicidal activity against Avena fatua at 2000 g a.i./ha after 21 days; format: functional
Alopecurus myosuroides [11] = assay: Herbicidal activity against Alopecurus myosuroides at > / = 250 g a.i./ha in presence of cloquintocet-mexyl; format: functional, organism-based
Lolium multiflorum = assay: Herbicidal activity against Lolium multiflorum (Italian ryegrass) at 125 g a.i./ha in presence of cloquintocet-mexyl; format: functional, organism-based
Apera spica-venti = assay: Herbicidal activity against Apera spica-venti at 125 g a.i./ha in presence of cloquintocet-mexyl; format: functional, organism-based
Avena fatua [12] = assay: Post-emergence herbicidal activity against Avena fatua at 500 g a.i./ha after 21 days; format: functional
Avena fatua [13] = assay: Herbicidal activity against Avena fatua at > / = 250 g a.i./ha in presence of cloquintocet-mexyl; format: functional, organism-based
Lolium perenne [14] = assay: Post-emergence herbicidal activity against Lolium perenne (perennial ryegrass) at 2000 g a.i./ha after 21 days; format: functional
Alopecurus myosuroides [15] = assay: Post-emergence herbicidal activity against Alopecurus myosuroides at 30 g a.i./ha measured after 21 days in presence of 1% Merge adjuvant; format: functional
Setaria faberi [16] = assay: Post-emergence herbicidal activity against Setaria faberi (Giant Foxtail) at 30 g a.i./ha measured after 21 days in presence of 1% Merge adjuvant; format: functional
Lolium rigidum [17] = assay: Post-emergence herbicidal activity against Lolium rigidum at 30 g a.i./ha measured after 20 days in presence of cloquintocet-mexyl; format: functional
Triticum aestivum [18] = assay: Phytotoxicity against Triticum aestivum cv. Arina (wheat) at 60 g a.i./ha applied post-emergence measured after 12 days; format: functional
Lolium perenne [19] = assay: Post-emergence herbicidal activity against Lolium perenne (perennial ryegrass) at 30 g a.i./ha measured after 21 days in presence of 1% Merge adjuvant; format: functional
Triticum aestivum [20] = assay: Phytotoxicity against Triticum aestivum cv. Remia (wheat) at 60 g a.i./ha applied post-emergence measured after 12 days in presence of cloquintocet-mexyl; format: functional
Avena fatua [21] = assay: Post-emergence herbicidal activity against Avena fatua at 30 g a.i./ha measured after 20 days in presence of cloquintocet-mexyl; format: functional
Triticum aestivum [22] = assay: Phytotoxicity against Triticum aestivum cv. Remia (wheat) at 60 g a.i./ha applied post-emergence measured after 12 days; format: functional
Hordeum vulgare [23] = assay: Phytotoxicity against Hordeum vulgare cv. Fanfare (barley) at 60 g a.i./ha applied post-emergence measured after 12 days; format: functional
Hordeum vulgare [24] = assay: Phytotoxicity against Hordeum vulgare (barley) at 30 g a.i./ha applied post-emergence measured after 21 days in presence of 1% Merge adjuvant; format: organism-based; details: in vivo, other, 504 h
Avena fatua [25] = assay: Post-emergence herbicidal activity against Avena fatua at 30 g a.i./ha measured after 21 days in presence of 1% Merge adjuvant; format: functional
Avena fatua [26] = assay: Post-emergence herbicidal activity against Avena fatua at 30 g a.i./ha measured after 20 days; format: functional
Lolium rigidum [27] = assay: Post-emergence herbicidal activity against Lolium rigidum at 30 g a.i./ha measured after 20 days; format: functional
Triticum aestivum [28] = assay: Phytotoxicity against Triticum aestivum cv. Arina (wheat) at 60 g a.i./ha applied post-emergence measured after 12 days in presence of cloquintocet-mexyl; format: functional
Triticum aestivum [29] = assay: Phytotoxicity against Triticum aestivum (wheat) at 30 g a.i./ha applied post-emergence measured after 21 days in presence of 1% Merge adjuvant; format: organism-based; details: in vivo, other, 504 h
Hordeum vulgare [30] = assay: Phytotoxicity against Hordeum vulgare cv. Fanfare (barley) at 60 g a.i./ha applied post-emergence measured after 12 days in presence of cloquintocet-mexyl; format: functional
Hordeum vulgare [31] = assay: Phytotoxicity against Hordeum vulgare (barley) at 500 g a.i./ha applied post-emergence measured after 15 days; format: organism-based; details: in vivo, other, 360 h
Alopecurus myosuroides [32] = assay: Post-emergence herbicidal activity against Alopecurus myosuroides at 500 g a.i./ha measured after 15 days; format: functional
Lolium perenne [33] = assay: Post-emergence herbicidal activity against Lolium perenne (perennial ryegrass) at 500 g a.i./ha measured after 15 days; format: functional
Triticum aestivum [34] = assay: Phytotoxicity against Triticum aestivum (wheat) at 500 g a.i./ha applied post-emergence measured after 15 days; format: organism-based; details: in vivo, other, 360 h
Setaria faberi [35] = assay: Post-emergence herbicidal activity against Setaria faberi (Giant Foxtail) at 500 g a.i./ha measured after 15 days; format: functional
Avena fatua [36] = assay: Post-emergence herbicidal activity against Avena fatua at 500 g a.i./ha measured after 15 days; format: functional
Setaria faberi [37] = assay: Post-emergence herbicidal activity against Setaria faberi (Giant Foxtail) at 125 g a.i./ha measured after 21 days in presence of 0.2% X-77 adjuvant; format: functional
Avena fatua [38] = assay: Post-emergence herbicidal activity against Avena fatua at 125 g a.i./ha measured after 21 days in presence of 0.2% X-77 adjuvant; format: functional
Alopecurus myosuroides [39] = assay: Post-emergence herbicidal activity against Alopecurus myosuroides at 125 g a.i./ha measured after 21 days in presence of 0.2% X-77 adjuvant; format: functional
Hordeum vulgare [40] = assay: Phytotoxicity against Hordeum vulgare (barley) at 125 g a.i./ha applied post-emergence measured after 21 days in presence of 0.2% X-77 adjuvant; format: organism-based; details: in vivo, other, 504 h
Triticum aestivum [41] = assay: Phytotoxicity against Triticum aestivum (wheat) at 125 g a.i./ha applied post-emergence measured after 21 days in presence of 0.2% X-77 adjuvant; format: organism-based; details: in vivo, other, 504 h
Lolium perenne [42] = assay: Post-emergence herbicidal activity against Lolium perenne (perennial ryegrass) at 125 g a.i./ha measured after 21 days in presence of 0.2% X-77 adjuvant; format: functional

SMILES | Activity (Alopecurus myosuroides [1]) [%] | Activity (Lolium perenne [2]) [%] | Activity (Setaria faberi [3]) [%] | Activity (Hordeum vulgare [4]) [%] | Activity (Triticum aestivum [5]) [%] | Activity (Avena fatua [6]) [%] | Activity (Lolium perenne [7]) [%] | Activity (Setaria faberi [8]) [%] | Activity (Setaria faberi [9]) [%] | Activity (Avena fatua [10]) [%] | Activity (Avena fatua [12]) [%] | Activity (Lolium perenne [14]) [%] | Activity (Alopecurus myosuroides [15]) [%] | Activity (Setaria faberi [16]) [%] | Activity (Lolium perenne [19]) [%] | Activity (Hordeum vulgare [24]) [%] | Activity (Avena fatua [25]) [%] | Activity (Triticum aestivum [29]) [%] | also measured
Cc1cc(C)c(C2C(=O)N3CCCOCN3C2=O)c(C)c1 (stereo unspecified) | 0 | 20 | 50 | 10 | 10 | 0 | – | – | – | – | – | – | – | – | – | – | – | – | –
Cc1cc(C)c(C2C(=O)N3CCOCN3C2=O)c(C)c1 (stereo unspecified) | 40 | 90 | 90 | 0 | 20 | 90 | – | – | – | – | – | – | – | – | – | – | – | – | –
Cc1cc(C)c(-c2c(OC(=O)C(C)(C)C)n3n(c2=O)CCOCC3)c(C)c1 | – | – | – | – | – | – | 90 | 100 | 90 | 100 | 90 | 90 | – | – | – | – | – | – | Activity (Alopecurus myosuroides [11]): Active; Activity (Lolium multiflorum): Active; Activity (Apera spica-venti): Active; Activity (Avena fatua [13]): Active
CCc1cc(C)cc(CC)c1C1C(=O)N2CCOCCN2C1=O [PINOXADEN DIONE] | – | – | – | – | – | – | – | – | – | – | – | – | 100 | 90 | 90 | 0 | 100 | 10 | Activity (Lolium rigidum [17]): 90%; Activity (Triticum aestivum [18]): 20%; Activity (Triticum aestivum [20]): 0%; Activity (Avena fatua [21]): 90%; Activity (Triticum aestivum [22]): 50%; Activity (Hordeum vulgare [23]): 40%; Activity (Avena fatua [26]): 90%; Activity (Lolium rigidum [27]): 90%; Activity (Triticum aestivum [28]): 0%; Activity (Hordeum vulgare [30]): 0%
Cc1cc(C)c(C2C(=O)N3CCOCCN3C2=O)c(C)c1 | 80 | 90 | 90 | 20 | 50 | 90 | 90 | 100 | 80 | 100 | 80 | 100 | 10 | 50 | 80 | 0 | 60 | 0 | –
Cc1cc(C)c(C2C(=O)N3CCCCCN3C2=O)c(C)c1 | – | – | – | – | – | – | 60 | 90 | 90 | 90 | 50 | 90 | – | – | – | – | – | – | Activity (Hordeum vulgare [31]): 40%; Activity (Alopecurus myosuroides [32]): 50%; Activity (Lolium perenne [33]): 50%; Activity (Triticum aestivum [34]): 20%; Activity (Setaria faberi [35]): 60%; Activity (Avena fatua [36]): 90%
CCc1cc(C)cc(CC)c1-c1c(OC(=O)N(CC)CC)n2n(c1=O)CCOCC2 | – | – | – | – | – | – | – | – | – | – | – | – | 0 | 0 | 0 | 0 | 0 | 0 | –
CCc1cc(C)cc(CC)c1C1C(=O)N2CCCCN2C1=O | – | – | – | – | – | – | – | – | – | – | – | – | – | – | – | – | – | – | Activity (Setaria faberi [37]): 80%; Activity (Avena fatua [38]): 100%; Activity (Alopecurus myosuroides [39]): 90%; Activity (Hordeum vulgare [40]): 90%; Activity (Triticum aestivum [41]): 80%; Activity (Lolium perenne [42]): 90%
CCc1cc(CC)c(C2C(=O)N3CCCCN3C2=O)c(CC)c1 | – | – | – | – | – | – | – | – | – | – | – | – | – | – | – | – | – | – | Activity (Setaria faberi [37]): 50%; Activity (Avena fatua [38]): 100%; Activity (Alopecurus myosuroides [39]): 90%; Activity (Hordeum vulgare [40]): 40%; Activity (Triticum aestivum [41]): 40%; Activity (Lolium perenne [42]): 60%
